From the supplement of paper PMC9013687

How the values were obtained:
Danio rerio embryo [1] = assay: EC10 Pericard size_Increase; higher = less potent
Experimental: (§1)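 Zebrafish embryos (UFZ-OBI strain) were exposed from 2 hpf for 48 h (2 dpf) or 96 h (4 dpf) at 28 °C; spontaneous tail coiling was scored at 25 hpf. Morphological features from automated image analysis (FishInspector), heart rate and locomotor response were fitted with drc models. Quantal endpoints were dichotomised at 2.5 SD from controls and fitted with a log-logistic model; heart rate, pigmentation and STC were normalised to the replicate control mean. Betamethasone was tested as betamethasone dipropionate, diflorasone as diflorasone diacetate.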

Danio rerio embryo [2] = assay: spontaneous tail coiling frequency (coils/min/embryo); higher = more spontaneous movement; settings: 25 hpf
Experimental: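 Spontaneous tail coilings of zebrafish embryos exposed from 2 hpf were recorded at 24-25 hpf in 1-min videos and detected by a KNIME workflow from grey-value variance. Betamethasone was tested as the dipropionate, diflorasone as the diacetate.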

Danio rerio embryo [3] = tested on: Danio rerio embryo
Experimental: as §1

Danio rerio embryo [4] = settings: exposure time: 4 dpf
Experimental: as §1

Danio rerio embryo [5] = assay: EC10 Bladder size_Decrease; higher = less potent; settings: exposure time: 4 dpf
Experimental: as §1

Danio rerio embryo [6] = assay: EC20 Otolith-eye distance_Decrease; higher = less potent; settings: exposure time: 4 dpf
Experimental: as §1

Danio rerio embryo [7] = assay: EC50 Bladder size_Decrease; settings: exposure time: 4 dpf
Experimental: as §1

Danio rerio embryo [8] = assay: EC10 Otolith-eye distance_Decrease; higher = less potent; settings: exposure time: 4 dpf
Experimental: as §1

Danio rerio embryo [9] = assay: EC20 Pericard size_Increase; higher = less potent
Experimental: as §1

Danio rerio embryo [10] = assay: EC20 Bladder size_Decrease; higher = less potent; settings: exposure time: 4 dpf
Experimental: as §1

Danio rerio embryo [11] = assay: EC20 LMR dark; higher = less potent; settings: exposure time: 4 dpf
Experimental: as §1

Danio rerio embryo [12] = assay: EC50 Body length_Decrease
Experimental: as §1

Danio rerio embryo [13] = assay: EC20 Any effect; higher = less potent
Experimental: as §1

Danio rerio embryo [14] = assay: EC50 Eye-jaw distance_Decrease; settings: exposure time: 4 dpf
Experimental: as §1

Danio rerio embryo [15] = assay: EC10 Eye-jaw distance_Decrease; higher = less potent; settings: exposure time: 4 dpf
Experimental: as §1

Danio rerio embryo [16] = assay: EC10 Curvature_Increase; higher = less potent
Experimental: as §1

Danio rerio embryo [17] = assay: EC10 Yolk sac size_Increase; higher = less potent; settings: exposure time: 4 dpf
Experimental: as §1

Danio rerio embryo [18] = assay: EC10 Body length_Decrease; higher = less potent
Experimental: as §1

Danio rerio embryo [19] = assay: EC20 Eye-jaw distance_Decrease; higher = less potent; settings: exposure time: 4 dpf
Experimental: as §1

Danio rerio embryo [20] = assay: EC50 Pericard size_Increase
Experimental: as §1

Danio rerio embryo [21] = assay: EC50 Curvature_Increase
Experimental: as §1

Danio rerio embryo [22] = assay: EC20 Yolk sac size_Increase; higher = less potent; settings: exposure time: 4 dpf
Experimental: as §1

Danio rerio embryo [23] = assay: EC50 Otolith-eye distance_Decrease; settings: exposure time: 4 dpf
Experimental: as §1

Danio rerio embryo [24] = assay: EC20 Curvature_Increase; higher = less potent
Experimental: as §1

Danio rerio embryo [25] = assay: EC10 Any effect; higher = less potent
Experimental: as §1

Danio rerio embryo [26] = assay: EC50 Yolk sac size_Increase; settings: exposure time: 4 dpf
Experimental: as §1

Danio rerio embryo [27] = assay: EC20 Body length_Decrease; higher = less potent
Experimental: as §1

Danio rerio embryo [28] = assay: EC10 LMR dark; higher = less potent; settings: exposure time: 4 dpf
Experimental: as §1

Cc1ccc(-c2cc(C(F)(F)F)nn2-c2ccc(S(N)(=O)=O)cc2)cc1 [Celecoxib]
Settings	EC10 Any effect [µM]	EC10 Body length Decrease [µM]	EC10 Curvature Increase [µM]	EC10 Pericard size Increase [µM]	EC20 Any effect [µM]	EC20 Body length Decrease [µM]	EC20 Curvature Increase [µM]	EC20 Pericard size Increase [µM]	EC50 Any effect [µM]	EC50 Body length Decrease [µM]	EC50 Curvature Increase [µM]	EC50 Pericard size Increase [µM]	EC50 STC bell shape [µM]	spontaneous tail coiling frequency
Danio rerio embryo [1], exposure time: 2 dpf	–	–	–	4.26	–	–	–	–	–	–	–	–	–	–
Danio rerio embryo [1], exposure time: 4 dpf	–	–	–	7.87	–	–	–	–	–	–	–	–	–	–
Danio rerio embryo [2], 5 µM	–	–	–	–	–	–	–	–	–	–	–	–	–	2.65
Danio rerio embryo [2], 8.3 µM	–	–	–	–	–	–	–	–	–	–	–	–	–	2.21
Danio rerio embryo [2], 10 µM	–	–	–	–	–	–	–	–	–	–	–	–	–	2.87
Danio rerio embryo [2], 16.5 µM	–	–	–	–	–	–	–	–	–	–	–	–	–	2.73
Danio rerio embryo [2], 17.5 µM	–	–	–	–	–	–	–	–	–	–	–	–	–	1.93
Danio rerio embryo [2], 24.8 µM	–	–	–	–	–	–	–	–	–	–	–	–	–	2.06
Danio rerio embryo [2], 25 µM	–	–	–	–	–	–	–	–	–	–	–	–	–	2.15
Danio rerio embryo [2], 32.5 µM	–	–	–	–	–	–	–	–	–	–	–	–	–	1.08
Danio rerio embryo [2], 33 µM	–	–	–	–	–	–	–	–	–	–	–	–	–	1.78
Danio rerio embryo [2], 40 µM	–	–	–	–	–	–	–	–	–	–	–	–	–	0.12
Danio rerio embryo [3], exposure time: 2 dpf	–	–	–	–	–	–	–	–	13.9	–	–	–	–	–
Danio rerio embryo [3], exposure time: 4 dpf	–	–	–	–	–	–	–	–	8.13	–	–	–	–	–
Danio rerio embryo [3], exposure time: 25 h	–	–	–	–	–	–	–	–	–	–	–	–	32.2	–
Danio rerio embryo [9], exposure time: 2 dpf	–	–	–	–	–	–	–	6.48	–	–	–	–	–	–
Danio rerio embryo [9], exposure time: 4 dpf	–	–	–	–	–	–	–	9.76	–	–	–	–	–	–
Danio rerio embryo [12], exposure time: 2 dpf	–	–	–	–	–	–	–	–	–	25.2	–	–	–	–
Danio rerio embryo [12], exposure time: 4 dpf	–	–	–	–	–	–	–	–	–	13.6	–	–	–	–
Danio rerio embryo [13], exposure time: 2 dpf	–	–	–	–	7.05	–	–	–	–	–	–	–	–	–
Danio rerio embryo [13], exposure time: 4 dpf	–	–	–	–	2.94	–	–	–	–	–	–	–	–	–
Danio rerio embryo [16], exposure time: 2 dpf	–	–	29.8	–	–	–	–	–	–	–	–	–	–	–
Danio rerio embryo [16], exposure time: 4 dpf	–	–	12.3	–	–	–	–	–	–	–	–	–	–	–
Danio rerio embryo [18], exposure time: 2 dpf	–	20.1	–	–	–	–	–	–	–	–	–	–	–	–
Danio rerio embryo [18], exposure time: 4 dpf	–	8.57	–	–	–	–	–	–	–	–	–	–	–	–
Danio rerio embryo [20], exposure time: 2 dpf	–	–	–	–	–	–	–	–	–	–	–	13.3	–	–
Danio rerio embryo [20], exposure time: 4 dpf	–	–	–	–	–	–	–	–	–	–	–	14.1	–	–
Danio rerio embryo [21], exposure time: 2 dpf	–	–	–	–	–	–	–	–	–	–	31.6	–	–	–
Danio rerio embryo [21], exposure time: 4 dpf	–	–	–	–	–	–	–	–	–	–	21.1	–	–	–
Danio rerio embryo [24], exposure time: 2 dpf	–	–	–	–	–	–	30.5	–	–	–	–	–	–	–
Danio rerio embryo [24], exposure time: 4 dpf	–	–	–	–	–	–	15	–	–	–	–	–	–	–
Danio rerio embryo [25], exposure time: 2 dpf	4.74	–	–	–	–	–	–	–	–	–	–	–	–	–
Danio rerio embryo [25], exposure time: 4 dpf	1.62	–	–	–	–	–	–	–	–	–	–	–	–	–
Danio rerio embryo [27], exposure time: 2 dpf	–	–	–	–	–	21.9	–	–	–	–	–	–	–	–
Danio rerio embryo [27], exposure time: 4 dpf	–	–	–	–	–	10.2	–	–	–	–	–	–	–	–

Settings	EC10 Bladder size Decrease [µM]	EC10 Eye-jaw distance Decrease [µM]	EC10 LMR dark [µM]	EC10 Otolith-eye distance Decrease [µM]	EC10 Yolk sac size Increase [µM]	EC20 Bladder size Decrease [µM]	EC20 Eye-jaw distance Decrease [µM]	EC20 LMR dark [µM]	EC20 Otolith-eye distance Decrease [µM]	EC20 Yolk sac size Increase [µM]	EC50 Bladder size Decrease [µM]	EC50 Eye-jaw distance Decrease [µM]	EC50 LMR dark [µM]	EC50 Otolith-eye distance Decrease [µM]	EC50 Yolk sac size Increase [µM]
Danio rerio embryo [4]	–	–	–	–	–	–	–	–	–	–	–	–	13	–	–
Danio rerio embryo [5]	7.91	–	–	–	–	–	–	–	–	–	–	–	–	–	–
Danio rerio embryo [6]	–	–	–	–	–	–	–	–	16.8	–	–	–	–	–	–
Danio rerio embryo [7]	–	–	–	–	–	–	–	–	–	–	8.8	–	–	–	–
Danio rerio embryo [8]	–	–	–	14.6	–	–	–	–	–	–	–	–	–	–	–
Danio rerio embryo [10]	–	–	–	–	–	8.23	–	–	–	–	–	–	–	–	–
Danio rerio embryo [11]	–	–	–	–	–	–	–	9.94	–	–	–	–	–	–	–
Danio rerio embryo [14]	–	–	–	–	–	–	–	–	–	–	–	15.9	–	–	–
Danio rerio embryo [15]	–	9.89	–	–	–	–	–	–	–	–	–	–	–	–	–
Danio rerio embryo [17]	–	–	–	–	8.88	–	–	–	–	–	–	–	–	–	–
Danio rerio embryo [19]	–	–	–	–	–	–	11.8	–	–	–	–	–	–	–	–
Danio rerio embryo [22]	–	–	–	–	–	–	–	–	–	11.4	–	–	–	–	–
Danio rerio embryo [23]	–	–	–	–	–	–	–	–	–	–	–	–	–	21.4	–
Danio rerio embryo [26]	–	–	–	–	–	–	–	–	–	–	–	–	–	–	17.6
Danio rerio embryo [28]	–	–	8.51	–	–	–	–	–	–	–	–	–	–	–	–
